For one assay, the species on record is Rattus norvegicus. Nature of the assay: Stabilization of rat DNA polymerase binding to DNA by gel mobility assay.
For the next assay, the system named is A2780. Kind of assay: Cytotoxicity against human A2780 cells. In kind it is functional.

Molecules are shown by their SMILES. The source made the active and inactive calls. The calls are words filed in the database; no cut-off is given here. *1 amine or outer side, *2 acyl side, *3 side chain or, on linkers, in order; H or OH if unused. Where a SMILES comes first, the peptide text is derived from it. Bridges are numbered along the chain shown (N, C = ends). Roman numbers before positions name the chains, in order. [ ]: non-standard residue; d: D form. Actinocin(1to9) = Cc1c2oc3c(C)ccc(C(=O)[*:2])c3nc-2c(C(=O)[*:1])c(N)c1=O; NMeV = CN[C@H](C(=O)O)C(C)C; Sar = CNCC(=O)O

For the compound `CC(=O)OC[C@]1(C)[C@@H]2CC[C@]3(C)/C(=C(C)/C=C/C=C(\C)[C@H](CC=C(C)C)OC(C)=O)C(=O)C[C@H]3[C@@]2(C)CC[C@H]1OC(C)=O`, the Activity came to 23% in the assay listed under Rattus norvegicus and 27 µM in the assay on A2780.

As to `Cc1c2oc3c(C)ccc(C(=O)N[C@@H]4C(=O)N[C@H](C(C)C)C(=O)N5CCC[C@H]5C(=O)N(C)CC(=O)N(C)[C@@H](C(C)C)C(=O)O[C@@H]4C)c3nc-2c(C(=O)N[C@@H]2C(=O)N[C@H](C(C)C)C(=O)N3CCC[C@H]3C(=O)N(C)CC(=O)N(C)[C@@H](C(C)C)C(=O)O[C@@H]2C)c(N)c1=O` [DACTINOMYCIN] (I: T[dV]P[Sar][NMeV] / II: T[dV]P[Sar][NMeV]; ester I:1-I:C, II:1-II:C; linker I:N-II:N via Actinocin(1to9)), the Activity with A2780 worked out at 0.0017 µM.

Regarding `CC(C)=C/C=C/C(C)=C/C=C/C(C)=C1\C(=O)C[C@H]2[C@@]3(C)CC[C@@H](O)[C@](C)(CO)[C@@H]3CC[C@]12C` [STELLETTIN J], the Activity stood at 8% in the assay filed under Rattus norvegicus and 1.2 µM in the assay with A2780.

On to `CC(C)=C/C=C/C(C)=C/C=C/C(C)=C1\C(=O)C[C@H]2[C@@]3(C)CC[C@@H](O)[C@](C)(C(=O)O)[C@@H]3CC[C@]12C` [STELLETTIN K], for which the outcome in the assay filed under Rattus norvegicus was inactive. For the same compound, the Activity with A2780 worked out at 0.28 µM.

With `CC(=O)O[C@@H]1CC[C@@]2(C)[C@@H](CC[C@]3(C)/C(=C(C)/C=C/C=C(\C)C(CC=C(C)C)O[C@@H]4OC[C@@H](O)[C@@H](O)[C@H]4O)C(=O)C[C@@H]23)C1(C)C` (some centres undefined) [STELLIFERIN RIBOSIDE], the results for the Activity in the assay listed under Rattus norvegicus and in the assay with A2780 were 29% and 7.3 µM, respectively.

Values taken from ChEMBL document CHEMBL1157290, “Bioactive isomalabaricane triterpenoids from Rhabdastrella globostellata that stabilize the binding of DNA polymerase beta to DNA” (2006).
